In ChEMBL document CHEMBL3856242, “Bioactive diterpenoids from Trigonostemon chinensis: Structures, NO inhibitory activities, and interactions with iNOS” (Bioorg Med Chem Lett, 2016):
pIC50: −log10 of the molar value.

What was measured:
[1] = target: T1, Nitric oxide synthase, inducible (Mus musculus, UniProt P29477); experiment: Inhibition of iNOS in mouse BV2 cells assessed as inhibition of LPS-induced NO production after 20 hrs by Griess reaction; type: cell-based, BV-2
T1 sequence (P29477 whole entry): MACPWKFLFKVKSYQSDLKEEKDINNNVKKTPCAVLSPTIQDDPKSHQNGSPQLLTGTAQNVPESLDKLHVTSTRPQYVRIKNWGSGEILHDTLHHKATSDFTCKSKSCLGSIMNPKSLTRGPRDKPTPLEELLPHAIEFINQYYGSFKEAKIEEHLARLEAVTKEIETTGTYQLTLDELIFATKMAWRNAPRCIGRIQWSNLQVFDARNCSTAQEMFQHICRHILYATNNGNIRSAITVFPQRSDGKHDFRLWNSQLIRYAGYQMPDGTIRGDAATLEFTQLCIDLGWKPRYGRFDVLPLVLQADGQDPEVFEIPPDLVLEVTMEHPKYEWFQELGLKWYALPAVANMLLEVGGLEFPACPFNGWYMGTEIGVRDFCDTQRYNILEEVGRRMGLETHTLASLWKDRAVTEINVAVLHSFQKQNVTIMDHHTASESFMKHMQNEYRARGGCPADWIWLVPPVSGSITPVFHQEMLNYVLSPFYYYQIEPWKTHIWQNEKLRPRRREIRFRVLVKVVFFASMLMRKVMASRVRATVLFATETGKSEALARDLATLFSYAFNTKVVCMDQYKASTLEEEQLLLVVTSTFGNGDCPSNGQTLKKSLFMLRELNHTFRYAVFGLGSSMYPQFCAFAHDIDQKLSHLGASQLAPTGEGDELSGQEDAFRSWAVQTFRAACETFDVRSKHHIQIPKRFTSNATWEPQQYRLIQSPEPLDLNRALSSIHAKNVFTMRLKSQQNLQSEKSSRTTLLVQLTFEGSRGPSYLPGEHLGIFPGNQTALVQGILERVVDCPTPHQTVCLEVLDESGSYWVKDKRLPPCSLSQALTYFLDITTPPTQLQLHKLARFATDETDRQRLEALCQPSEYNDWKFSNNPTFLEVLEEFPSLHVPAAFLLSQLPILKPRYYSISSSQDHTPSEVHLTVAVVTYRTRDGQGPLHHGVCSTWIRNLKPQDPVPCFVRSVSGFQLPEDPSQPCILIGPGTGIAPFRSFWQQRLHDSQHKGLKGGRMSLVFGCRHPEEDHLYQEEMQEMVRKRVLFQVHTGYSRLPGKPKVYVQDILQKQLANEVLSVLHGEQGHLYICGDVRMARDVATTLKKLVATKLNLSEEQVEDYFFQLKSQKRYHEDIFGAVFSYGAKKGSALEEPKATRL

Mus musculus = species: Mus musculus; experiment: Cytotoxicity against mouse BV2 cells at IC50 by MTT assay; type: toxicity, cell-based; settings: bv-2

Row | Compound | pIC50 [1] | Activity (Mus musculus)
1 | C=C(C)[C@@]1(O)[C@@H]2OC3(c4ccccc4)O[C@H]1[C@@H](C)[C@@]1(O3)[C@H]2[C@H](O)[C@@](C)(OC(=O)c2ccccc2)[C@@H](OC(C)=O)[C@@]2(O)[C@H]1C[C@H](C)[C@@H]2O | < 4.52 | Non-Toxic
2 | Cc1cc2c(cc1O)C=C1CC[C@H](O)C(C)(C)[C@@H]1CC2 | 5.42 | Non-Toxic
3 | C=C(C)[C@@]1(OC(C)=O)[C@H](OC(C)=O)[C@@H]2[C@H](OC(C)=O)[C@@]3(C)O[C@@]4([C@@H]3OC(=O)c3ccccc3)[C@@H](OC(C)=O)[C@@H](C)C[C@H]4[C@@]2(O)[C@H](C)[C@@H]1OC(=O)c1ccccc1 | 5.12 | Non-Toxic
4 | Cc1cc2c(cc1O)[C@@]1(C)CC[C@H](O)C(C)(C)[C@@H]1CC2 | 5.23 | Non-Toxic
5 | C=C(C)[C@@]1(O)[C@@H]2OC3(c4ccccc4)O[C@H]1[C@@H](C)[C@@]1(O3)[C@H]2[C@H](OC(C)=O)[C@@](C)(OC(=O)c2ccccc2)[C@@H](OC(C)=O)[C@@]2(O)[C@H]1C[C@H](C)[C@@H]2O | 4.99 | Non-Toxic
6 | C=C(C)[C@@]1(OC(=O)c2ccccc2)[C@H](OC(C)=O)[C@@H]2[C@H](OC(C)=O)[C@@]3(C)O[C@@]4([C@@H]3OC(=O)c3ccccc3)[C@@H](OC(C)=O)[C@@H](C)C[C@H]4[C@@]2(O)[C@H](C)[C@@H]1OC(C)=O | 4.87 | Non-Toxic
7 | CSC(=N)N.O=S(=O)(O)O | 5.74 | Non-Toxic
